Assay results published in ChEMBL document CHEMBL4334532, “Cytotoxic p-Terphenyls from a Marine-Derived Nocardiopsis Species” (J Nat Prod, 2019).
Activity calls are given as the source filed them. No cut-off for these calls is given here.

How the values were obtained:
[1] = system: HuCCT-1; test: Cytotoxicity against human HuCCT1 cells measured after 72 hrs by Celltiter-Glo assay; assay type: functional, cell-based; settings: HuCCT-1, 72 h
[2] = system: NCI-H1975; test: Cytotoxicity against human NCI-H1975 cells harboring EGFR double L858R/T790M mutant measured after 72 hrs by Celltiter-Glo assay; assay type: functional, cell-based; settings: NCI-H1975, 72 h
[3] = system: MV4-11; test: Cytotoxicity against human MV4-11 cells measured after 72 hrs by Celltiter-Glo assay; assay type: functional, cell-based; settings: MV4-11, 72 h
[4] = system: MDA-MB-231; test: Cytotoxicity against human MDA-MB-231 cells measured after 72 hrs by Celltiter-Glo assay; assay type: functional, cell-based; settings: MDA-MB-231, 72 h
[5] = system: MKN-45; test: Cytotoxicity against human MKN45 cells measured after 72 hrs by Celltiter-Glo assay; assay type: functional, cell-based; settings: MKN-45, 72 h
[6] = system: A-431; test: Cytotoxicity against human A431 cells measured after 72 hrs by Celltiter-Glo assay; assay type: functional, cell-based; settings: A-431, 72 h
[7] = system: MDA-MB-468; test: Cytotoxicity against human MDA-MB-468 cells measured after 72 hrs by Celltiter-Glo assay; assay type: functional, cell-based; settings: MDA-MB-468, 72 h
[8] = system: NCI-N87; test: Cytotoxicity against human NCI-N87 cells measured after 72 hrs by Celltiter-Glo assay; assay type: functional, cell-based; settings: NCI-N87, 72 h
[9] = system: B16-F10; test: Cytotoxicity against mouse B16/F10 cells measured after 72 hrs by Celltiter-Glo assay; assay type: functional, cell-based; settings: B16-F10, 72 h
[10] = system: HCC1954; test: Cytotoxicity against human HCC1954 cells measured after 72 hrs by Celltiter-Glo assay; assay type: functional, cell-based; settings: HCC1954, 72 h
[11] = system: A673; test: Cytotoxicity against human A673 cells measured after 72 hrs by Celltiter-Glo assay; assay type: functional, cell-based; settings: A673, 72 h
[12] = system: BT-474; test: Cytotoxicity against human BT474 cells measured after 72 hrs by Celltiter-Glo assay; assay type: functional, cell-based; settings: BT-474, 72 h
[13] = system: KARPAS-299; test: Cytotoxicity against human KARPAS299 cells measured after 72 hrs by Celltiter-Glo assay; assay type: functional, cell-based; settings: KARPAS-299, 72 h
[14] = system: NCI-H1299; test: Cytotoxicity against human H1299 cells measured after 72 hrs by Celltiter-Glo assay; assay type: functional, cell-based; settings: NCI-H1299, 72 h
[15] = system: U-251; test: Cytotoxicity against human U251 cells measured after 72 hrs by Celltiter-Glo assay; assay type: functional, cell-based; settings: U-251, 72 h
[16] = system: DU-145; test: Cytotoxicity against human DU145 cells measured after 72 hrs by Celltiter-Glo assay; assay type: functional, cell-based; settings: DU-145, 72 h
[17] = system: HeLa; test: Cytotoxicity against human HeLa cells; assay type: functional, cell-based
[18] = Cytotoxicity against human SPC-A1 cells overexpressing maspin protein measured after 72 hrs by Celltiter-Glo assay; assay type: functional, cell-based; settings: SPCA1, 72 h
[19] = system: Hep 3B2; test: Cytotoxicity against human Hep3B cells measured after 72 hrs by Celltiter-Glo assay; assay type: functional, cell-based
[20] = system: A549; test: Cytotoxicity against human A549 cells measured after 72 hrs by Celltiter-Glo assay; assay type: functional, cell-based; settings: A549, 72 h
[21] = system: K562; test: Cytotoxicity against human K562 cells measured after 72 hrs by Celltiter-Glo assay; assay type: functional, cell-based; settings: K562, 72 h
[22] = system: HCT-116; test: Cytotoxicity against human HCT116 cells measured after 72 hrs by Celltiter-Glo assay; assay type: functional, cell-based; settings: HCT-116, 72 h
[23] = system: U-87 MG; test: Cytotoxicity against human U87 cells measured after 72 hrs by Celltiter-Glo assay; assay type: functional, cell-based, U-87MG ATCC
[24] = system: NCI-H2228; test: Cytotoxicity against human NCI-H2228 cells measured after 72 hrs by Celltiter-Glo assay; assay type: functional, cell-based; settings: NCI-H2228, 72 h
[25] = system: HL-60; test: Cytotoxicity against human HL60 cells measured after 72 hrs by Celltiter-Glo assay; assay type: functional, cell-based; settings: HL-60, 72 h
[26] = system: 143B; test: Cytotoxicity against human 143B cells measured after 72 hrs by Celltiter-Glo assay; assay type: functional, cell-based
[27] = system: MCF7; test: Cytotoxicity against human MCF7 cells measured after 72 hrs by Celltiter-Glo assay; assay type: functional, cell-based; settings: MCF7, 72 h
[28] = system: MCF7; test: Cytotoxicity against human MCF7 cells assessed as inhibition of cell growth measured after 72 hrs by MTT assay; assay type: functional, cell-based; settings: MCF7, 72 h
[29] = system: L02; test: Cytotoxicity against human LO2 cells assessed as inhibition of cell growth measured after 72 hrs by MTT assay; assay type: cell-based; settings: L02, 72 h
[30] = Cytotoxicity against human P6C cells assessed as inhibition of cell growth measured after 72 hrs by MTT assay; assay type: functional, cell-based
[31] = system: A549; test: Cytotoxicity against human A549 cells assessed as inhibition of cell growth measured after 72 hrs by MTT assay; assay type: functional, cell-based; settings: A549, 72 h
[32] = system: K562; test: Cytotoxicity against human K562 cells assessed as inhibition of cell growth measured after 72 hrs by CCK-8 assay; assay type: functional, cell-based; settings: K562, 72 h

`COC1=C(c2ccc(OC)cc2)C(=O)C=C(c2ccc(OC)cc2)C1=O` showed an IC50 [1] of 0.2 µM, an IC50 [2] of 3.1 µM and an IC50 [3] of 0.16 µM. For the same molecule, the IC50 [4] was 2 µM, the IC50 [5] was 0.49 µM and the IC50 [6] was > 100 µM. For the same molecule, the IC50 [7] was 1.1 µM, the IC50 [8] was 1 µM and the IC50 [9] was 0.76 µM. The IC50 [10] was 0.48 µM, the IC50 [11] was 0.76 µM and the IC50 [12] was 3.6 µM. The IC50 [13] was > 100 µM, the IC50 [14] was 0.72 µM and the IC50 [15] was 4.7 µM. The IC50 [16] was 0.52 µM, the Activity [17] was “Active” and the IC50 [18] was 2 µM. For the same molecule, the IC50 [19] was > 100 µM, the IC50 [20] was 0.48 µM and the IC50 [21] was 4.8 µM. For the same molecule, the IC50 [22] was 1.9 µM, the IC50 [23] was > 100 µM and the IC50 [24] was 0.94 µM. The IC50 [25] was 0.17 µM, the IC50 [26] was 5 µM and the IC50 [27] was > 100 µM.
In the case of `COc1ccc(-c2cc(O)c(-c3ccc(OC)cc3)c(OC)c2O)cc1`, the IC50 [28] is reported as 30 µM, the IC50 [29] is reported as > 40 µM and the IC50 [30] is reported as > 40 µM. For the same molecule, the IC50 [31] was > 40 µM and the IC50 [32] was > 40 µM.
In the case of `COc1ccc(-c2c(OC)c(O)c(-c3ccc(OC)cc3)c3sc(CO)nc23)cc1`, the IC50 [1] is reported as > 100 µM, the IC50 [2] is reported as > 100 µM and the IC50 [3] is reported as 4 µM. For the same molecule, the IC50 [4] was > 100 µM, the IC50 [5] was > 100 µM and the IC50 [6] was 4.6 µM. For the same molecule, the IC50 [7] was 2.8 µM, the IC50 [8] was > 100 µM and the IC50 [9] was > 100 µM. For the same molecule, the IC50 [10] was 0.1 µM, the IC50 [11] was > 100 µM and the IC50 [12] was 6 µM. For the same molecule, the IC50 [13] was > 100 µM, the IC50 [14] was > 100 µM and the IC50 [15] was > 100 µM. For the same molecule, the IC50 [16] was > 100 µM, the IC50 [18] was > 100 µM and the IC50 [19] was > 100 µM. The IC50 [20] was 7.8 µM, the IC50 [21] was 9 µM and the IC50 [22] was > 100 µM. The IC50 [23] was > 100 µM, the IC50 [24] was 1.7 µM and the IC50 [25] was 0.38 µM. For the same molecule, the IC50 [26] was 5.5 µM and the IC50 [27] was 18 µM.
With `COc1ccc(-c2cc(O)c(-c3ccc(OC)cc3)c(OC)c2OC)cc1` the IC50 [1] was > 100 µM, the IC50 [2] was 4.4 µM and the IC50 [3] was 0.77 µM. The IC50 [4] was 2 µM, the IC50 [5] was 12 µM and the IC50 [6] was > 100 µM. For the same molecule, the IC50 [7] was 0.67 µM, the IC50 [8] was > 100 µM and the IC50 [9] was > 100 µM. The IC50 [10] was 2 µM, the IC50 [11] was 8.9 µM and the IC50 [12] was > 100 µM. For the same molecule, the IC50 [13] was > 100 µM, the IC50 [14] was > 100 µM and the IC50 [15] was > 100 µM. The IC50 [16] was 1 µM, the IC50 [18] was 9.8 µM and the IC50 [19] was > 100 µM. For the same molecule, the IC50 [20] was 9.7 µM, the IC50 [21] was 8.9 µM and the IC50 [22] was > 100 µM. The IC50 [23] was > 100 µM, the IC50 [24] was 5 µM and the IC50 [25] was 5 µM. It also gave an IC50 [26] of 7.7 µM and an IC50 [27] of 17 µM.
